Measurements: US20050118678A1, “Modified polypeptides with therapeutic activity and methods of use” (priority 2003, published 2005)
Residues, ends and D or L forms follow the SMILES beside them. No end group written: not given here. *: point of attachment. Stearoyl = CCCCCCCCCCCCCCCCCC(=O)*; Lauroyl = CCCCCCCCCCCC(=O)*

Assays:
B. anthracis = settings: cell survival by optical density at 650 nm
S. pyogenes Eaton = settings: pH 7
E. coli IA2 = settings: IA2, pH 7
[1] = system: drug-resistant strains of S. aureus (W73134 and M49780); assay: Example 2 antibacterial effect on drug-resistant strains; assay type: cell-based; settings: W73134 and M49780, FIG. 15 and 16
human red blood cells = settings: for Hemolysis (LD50): red cells of human, 1 h
bacteria = assay: Example 3 antibacterial activity of lauric acid conjugates; assay type: cell-based; settings: lauric acid conjugate vs unconjugated peptide
Source text: The hemolytic activity of the KAK and AKK peptides and conjugates was low. […] Fatty acid conjugation will improve the usefulness of peptides as antimicrobial agents by enhancing their ability to form secondary structures upon interacting with the bacterial membranes.

S. aureus MN8 = settings: MN8, pH 7
S. aureus MNHO = settings: pH 7
S. pyogenes Wilson = settings: pH 7
P. aeruginosa Type I = settings: pH 7
E. coli J96 = settings: J96, pH 7
E. coli 055:B5 LPS = assay: Limulus amoebocyte lysate assay for LPS neutralization; assay type: biochemical; settings: for IC50: 0.04 unit E. coli 055:B5 LPS, chromogenic QCL-1000 kit, read-out: LPS Binding (IC50); for LPS binding activity, fold higher than the SC4 peptide: relative to SC4
Description: Limulus amoebocyte lysate assay for lipopolysaccharide (LPS) neutralization. The ability of SC4 peptide and amphiphiles to neutralize endotoxin was measured using the chromogenic QCL-1000 kit from BioWhittaker, Inc. (Walkersville, Md). This method is quantitative for Gram-negative bacterial endotoxin (LPS) and uses peptide inhibition of LPS-mediated activation of a proenzyme as a measure of activity (Young et al., J. Clin. Invest. 51, 1790-1797 (1972)). Peptides of the appropriate concentration were mixed with Limulus amoebocyte lysate, 0.04 unit (0.01 nanogram (ng)) of E. coli 055:B5 LPS (SIGMA), and a colorless synthetic substrate (Ac-Ile-Glu-Ala-Arg-pNA) (SEQ ID NO: 18). Peptide binding to LPS was determined by monitoring enzymatic conversion of the substrate to yellow p-nitroaniline (pNA) via absorption at 410 nm. Endotoxin concentration was determined from the initial rate of enzyme activation. IC50 (concentration displaying 50% inhibition) values for LPS binding were determined by fitting to a dose-response curve.

[2] = system: MN8, Hoch, Knutson, FR1722, and RN6390; assay: Example 2 antibacterial effect on five Gram-positive strains; assay type: cell-based; settings: FIG. 10-14
[3] = system: erythrocytes (hemolytic activity); settings: cited from earlier work

| Molecule | Hemolytic activity (eukaryotic cell) | Bactericidal Activity (LD50) B. anthracis (B. anthracis) [µM] | Bactericidal Activity (LD50) S. pyogenes Eaton (S. pyogenes Eaton) [µM] | Bactericidal Activity (LD50) E. coli IA2 (E. coli IA2) [µM] | Hemolysis (LD50) (human red blood cells) [µM] | Bactericidal Activity (LD50) S. aureus MN8 (S. aureus MN8) [µM] | Bactericidal Activity (LD50) S. aureus MNHO (S. aureus MNHO) [µM] | Bactericidal Activity (LD50) S. pyogenes Wilson (S. pyogenes Wilson) [µM] | Bactericidal Activity (LD50) P. aeruginosa Type I (P. aeruginosa Type I) [µM] | Bactericidal Activity (LD50) E. coli J96 (E. coli J96) [µM] | Bactericidal Activity (LD50) S. aureus M49780 (S. aureus M49780) [µM] | Bactericidal Activity (LD50) S. aureus W73134 (S. aureus W73134) [µM] | also measured |
| --- | --- | --- | --- | --- | --- | --- | --- | --- | --- | --- | --- | --- | --- |
| C[C@H](NC(=O)[C@H](C)NC(=O)[C@H](CCCCN)NC(=O)[C@H](C)NC(=O)[C@H](C)NC(=O)[C@H](CCCCN)NC(=O)[C@H](CCCCN)NC(=O)[C@H](C)NC(=O)[C@H](C)NC(=O)[C@H](CCCCN)NC(=O)[C@H](C)NC(=O)[C@H](C)NC(=O)[C@H](CCCCN)NC(=O)[C@H](CCCCN)NC(=O)[C@H](C)NC(=O)[C@H](C)NC(=O)CNC(=O)[C@@H](N)Cc1ccc(O)cc1)C(=O)O [AKK, YGAA[KKAAKAA](2), reference compound] (H-YGAAKKAAKAAKKAAKAA-OH) | low |  |  |  |  |  |  |  |  |  |  |  |  |
| CCCCCCCCCCCC(=O)N[C@@H](CCCCN)C(=O)N[C@@H](CC(C)C)C(=O)N[C@@H](Cc1ccccc1)C(=O)N[C@@H](CCCCN)C(=O)N[C@@H](CCCNC(=N)N)C(=O)N[C@@H](Cc1c[nH]cn1)C(=O)N[C@@H](CC(C)C)C(=O)N[C@@H](CCCCN)C(=O)N[C@@H](Cc1c[nH]c2ccccc12)C(=O)N[C@@H](CCCCN)C(=O)N[C@H](C(=O)N[C@H](C(N)=O)[C@@H](C)CC)[C@@H](C)CC [C12-SC4] (Lauroyl-KLFKRHLKWKII-NH2) |  | 3.25 | 0.066 | 0.079 | 6.2 | 0.68 | 0.34 | 0.16 | 0.035 | 0.077 | 0.66 | 0.62 | Killing of drug-resistant S. aureus strains [1]: killed both drug-resistant strains; Change in hemolytic activity on fatty acid conjugation (eukaryotic cell): large increase in hemolytic activity; Antimicrobial activity relative to unconjugated peptide (bacteria): increased antimicrobial activity; IC50 (E. coli 055:B5 LPS): 230 nM; LPS binding activity, fold higher than the SC4 peptide (E. coli 055:B5 LPS): approximately 3 fold |
| CCCCCCCCCCCCCCCCCC(=O)N[C@@H](CCCCN)C(=O)N[C@@H](CC(C)C)C(=O)N[C@@H](Cc1ccccc1)C(=O)N[C@@H](CCCCN)C(=O)N[C@@H](CCCNC(=N)N)C(=O)N[C@@H](Cc1c[nH]cn1)C(=O)N[C@@H](CC(C)C)C(=O)N[C@@H](CCCCN)C(=O)N[C@@H](Cc1c[nH]c2ccccc12)C(=O)N[C@@H](CCCCN)C(=O)N[C@H](C(=O)N[C@H](C(N)=O)[C@@H](C)CC)[C@@H](C)CC [C18-SC4] (Stearoyl-KLFKRHLKWKII-NH2) |  | 2.23 | 0.11 | 0.19 | 1.9 | 0.11 | 0.068 | 0.13 | 0.042 | 0.23 | 0.24 | 0.10 | Increase in antibacterial effect relative to SC-4 [2]: ten to twenty fold increases; Killing of drug-resistant S. aureus strains [1]: killed both drug-resistant strains; Hemolytic activity, fold more hemolytic than C12-SC4 (human red blood cells): roughly 3 fold; IC50 (E. coli 055:B5 LPS): 82 nM; LPS binding activity, fold higher than the SC4 peptide (E. coli 055:B5 LPS): ~6 fold |
| C[C@H](NC(=O)[C@H](CCCCN)NC(=O)[C@H](C)NC(=O)[C@H](C)NC(=O)[C@H](CCCCN)NC(=O)[C@H](C)NC(=O)[C@H](CCCCN)NC(=O)[C@H](C)NC(=O)[C@H](C)NC(=O)[C@H](CCCCN)NC(=O)[C@H](C)NC(=O)[C@H](C)NC(=O)[C@H](CCCCN)NC(=O)[C@H](C)NC(=O)[C@H](CCCCN)NC(=O)[C@H](C)NC(=O)CNC(=O)[C@@H](N)Cc1ccc(O)cc1)C(=O)O [KAK, YG[AKAKAAKA](2), reference compound] (H-YGAKAKAAKAAKAKAAKA-OH) | low |  |  |  |  |  |  |  |  |  |  |  |  |
| CC[C@H](C)[C@H](NC(=O)[C@@H](NC(=O)[C@H](CCCCN)NC(=O)[C@H](Cc1c[nH]c2ccccc12)NC(=O)[C@H](CCCCN)NC(=O)[C@H](CC(C)C)NC(=O)[C@H](Cc1c[nH]cn1)NC(=O)[C@H](CCCNC(=N)N)NC(=O)[C@H](CCCCN)NC(=O)[C@H](Cc1ccccc1)NC(=O)[C@H](CC(C)C)NC(=O)[C@@H](N)CCCCN)[C@@H](C)CC)C(N)=O [SC4, KLFKRHLKWKII, reference compound] (H-KLFKRHLKWKII-NH2) |  | >15 | >2.0 | 0.21 | >375 | 1.3 | 2.3 | >1.0 | 0.028 | 0.12 | 2.0 | 2.3 | Concentration up to which little hemolytic activity was demonstrated (human red blood cells): > 400 µM; Concentration below which no hemolytic activity is shown [3]: ≥ 100 µM |
| conjugated AKK: AKK peptide YGAA[KKAAKAA](2) conjugated with lauric acid (YGAAKKAAKAA; numbers in words are those of the source; also: dimer [KKAAKAA](2), lauric acid conjugate, place not given here) | low |  |  |  |  |  |  |  |  |  |  |  | Antimicrobial activity relative to unconjugated peptide (bacteria): increased antimicrobial activity |
| conjugated KAK: KAK peptide YG[AKAKAAKA](2) conjugated with lauric acid (YGAKAKAAKA; numbers in words are those of the source; also: dimer [AKAKAAKA](2), lauric acid conjugate, place not given here) | low |  |  |  |  |  |  |  |  |  |  |  |  |
